The source of these data is patent US9856219B2, “Substituted quinoline compounds as S-nitrosoglutathione reductase inhibitors” (Nivalis Therapeutics, Inc., priority 2010, dated 2018).

Experiment [1] concerns cigarette smoke-induced COPD (BALF cells and chemokines). As to the kind of experiment: Acute (4 day) cigarette smoke exposure COPD model. The following applies: oral 10 mg/kg/day for 7 days. It is filed as in vivo, female C57Bl/6 mice. On the procedure: (§1) The efficacy of GSNOR inhibitors was assessed in a mouse model of chronic obstructive pulmonary disease (COPD) induced by short duration (4 days or 11 days) of exposure to cigarette smoke. Infiltration of inflammatory cells into the bronchoalveolar lavage fluid (BALF) and BALF levels of chemokines involved in inflammation and tissue turnover/repair were measured to assess the influences of GSNOR inhibitors on some of the early events associated with the initiation and progression of COPD.
Efficacy of GSNOR inhibitors against COPD was explored using acute (4 day) and subchronic (11 day) models of cigarette smoke-induced COPD in mice. […] In animal models, changes in lung pathology are only evident after extended (several months) duration of exposure to cigarette smoke, thus making chronic models prohibitive as effective screening tools. […]
Female C57Bl/6 mice (N=8 per group) were exposed to cigarette smoke using a whole body exposure chamber. […] The effects of GSNOR inhibitors were assessed by quantitating the numbers of total cells, leukocytes, and leukocytes differentials in the BALF via light microscopy and the levels of BALF chemokines via ELISA at approximately 24 h after the last smoke exposure. […]

In a further experiment the test system is acute DSS-induced IBD. As to the kind of experiment: Acute prophylactic model of DSS-induced IBD. It is filed as in vivo, male C57Bl/6 mice. The source says: Acute and chronic models of dextran sodium sulfate (DSS)-induced IBD in mice were used to explore efficacy of GSNORi against this disease. Acute and chronic DSS-induced IBD are widely used and well characterized models that induce pathological changes in the colon similar to those observed in the human disease. In these models and in human disease, epithelial cells within the crypts of the colon are disrupted, leading to dysfunction of the epithelial barrier and the ensuing tissue inflammation, edema, and ulceration. GSNORi therapy may benefit IBD by restoring s-nitrosoglutathione (GSNO) levels, and thus prevent or reverse the epithelial barrier dysfunction. Experimental IBD was induced by administration of DSS in the drinking water of male C57Bl/6 mice (N=8 to 10 mice per group) for 6 consecutive days. GSNORi was dosed orally at doses of 0.1 to 10 mg/kg/day for 10 days starting two days prior to and continuing two days post DSS exposure. Two days post DSS exposure, the effect of GSNORi was assessed in a blinded fashion via endoscopy and histopathology using a five point scale ranging from a score=0 (normal tissue) through a score=4 (ulcerative tissue damage and marked pathological changes). Levels of circulating cytokines involved in inflammatory pathways were also assessed. The effect of GSNORi was compared to vehicle treated controls. The corticosteroid, prednisolone, was used as the positive control in this study and was administered daily at 3 mg/kg/day via oral dosing. Naïve mice (N=5) were also assessed as a normal tissue control.

Experiment [2] concerns cigarette smoke-induced COPD (BALF cells). The experiment can be described thus: Subchronic (11 day) cigarette smoke exposure COPD model. It is filed as in vivo, female C57Bl/6 mice. The following applies: for effects compared to positive control roflumilast: roflumilast 5 mg/kg/day. The protocol: as §1
Efficacy of GSNOR inhibitors against COPD was explored using acute (4 day) and subchronic (11 day) models of cigarette smoke-induced COPD in mice. […] In animal models, changes in lung pathology are only evident after extended (several months) duration of exposure to cigarette smoke, thus making chronic models prohibitive as effective screening tools. More recently, models exploring inflammatory responses after short duration (2 weeks or less) of smoke exposure in mice have been utilized as tools for screening efficacy and mechanisms of action of novel therapeutics against COPD. The key roles of inflammation in the initiation and progression of COPD, make these short duration models relevant for initial tests of efficacy of novel therapeutics.
Female C57Bl/6 mice (N=10 per group) were exposed to cigarette smoke generated from Marlboro 100 cigarettes without filters. Exposure times were 25 min. on study day 1, 35 min. on study day 2, and 45 min. on study days 3 to 11. GSNOR inhibitors were administered one hour prior to smoke exposure on each day. GSNOR inhibitors were dosed orally at 1 to 10 mg/kg/day for 11 days. The effects of GSNOR inhibitors were assessed by quantitating the number of total cells, and leukocytes differentials in the BALF via light microscopy at 24 h after the last exposure. The effect of GSNOR inhibitors were compared to vehicle treated controls and expressed as percent inhibition of the cigarette smoke induced increases in BALF cell numbers. Roflumilast was used as the positive control for the study and was dosed at 5 mg/kg/day. A group of naïve mice (N=10) was exposed to air and dosed with vehicle as a negative control for the study.

Another experiment deals with chronic DSS-induced IBD. As to the kind of experiment: Chronic treatment model of DSS-induced IBD. It is filed as in vivo, male C57Bl/6 mice. The conditions noted are these: oral 10 mg/kg/day for up to 14 consecutive days, treatment regimen; p<0.05. An excerpt:
Acute and chronic models of dextran sodium sulfate (DSS)-induced IBD in mice were used to explore efficacy of GSNORi against this disease. Acute and chronic DSS-induced IBD are widely used and well characterized models that induce pathological changes in the colon similar to those observed in the human disease. In these models and in human disease, epithelial cells within the crypts of the colon are disrupted, leading to dysfunction of the epithelial barrier and the ensuing tissue inflammation, edema, and ulceration. GSNORi therapy may benefit IBD by restoring s-nitrosoglutathione (GSNO) levels, and thus prevent or reverse the epithelial barrier dysfunction.
Experimental IBD was induced by administration of DSS in the drinking water of male C57Bl/6 mice (N=10 to 12 mice per group) for 6 consecutive days. GSNORi was dosed orally at doses of 10 mg/kg/day for 14 days starting one day after cessation of DSS exposure. Efficacy of GSNORi was assessed in a blinded fashion via endoscopy after 7 days and 14 days of GSNORi dosing and via histopathology after 14 days of GSNORi dosing using a five point scale ranging from a score=0 (normal tissue) through a score=4 (ulcerative tissue damage and marked pathological changes). Levels of circulating cytokines involved in inflammatory pathways were also assessed. […] Naïve mice (N=5) were also assessed as a normal tissue control.

[3] abbreviates: oral 10 mg/kg/day for 10 consecutive days, prophylactic regimen.

Take `O=C(O)c1ccc(-c2ccc3cc(O)ccc3n2)cc1` [Compound 3, 4-(6-hydroxyquinolin-2-yl)benzoic acid]: in experiment [1], the BALF chemokines entry is “restored BALF chemokines towards levels observed in naïve mice” and the “effects compared to positive control roflumilast” value is “comparable to or greater than those observed for roflumilast”. Also, in the experiment with acute DSS-induced IBD (oral 0.1, 1, or 10 mg/kg/day for 10 days, prophylactic regimen), the circulating inflammatory cytokines entry was “restored circulating inflammatory cytokines towards levels observed in untreated naïve mice”. In addition, the “effects compared to positive control prednisolone” value in the experiment with acute DSS-induced IBD (prednisolone 3 mg/kg/day oral) was “comparable to or greater than those observed for prednisolone”.
`O=C(O)c1ccc(-c2ccc3cc(O)ccc3n2)c(Cl)c1` [Compound 8, 3-chloro-4-(6-hydroxyquinolin-2-yl)benzoic acid]: in the experiment on acute DSS-induced IBD (setting [3]), the “decrease of percent of mice with severe colon injury scores via endoscopy, of vehicle control” value came to 44% and the “decrease of percent of mice with severe colon injury scores via histopathology, of vehicle control” value was found to be 26%. For the same compound, the “dose response of effect” value in experiment [2] (oral 1, 5, or 10 mg/kg/day) is reported as “no dose response”. Besides, the “effects compared to positive control roflumilast” value in experiment [2] was “comparable to those of roflumilast”.
Turning to `O=C(O)c1ccc(-c2ccc3cc(O)ccc3n2)c(F)c1` [Compound 13, 3-fluoro-4-(6-hydroxyquinolin-2-yl)benzoic acid], in the experiment with chronic DSS-induced IBD, the “decrease of percent of mice with severe colon injury scores via endoscopy, of vehicle control” value stood at 52% and the “decrease of percent of mice with severe colon injury scores via histopathology, of vehicle control” value is 53%. Besides, in experiment [2], the “effects compared to positive control roflumilast” value is recorded as “comparable to those of roflumilast”.
For `Cc1cc(C(=O)O)ccc1-c1ccc2cc(O)ccc2n1` [Compound 27, 4-(6-hydroxyquinolin-2-yl)-3-methylbenzoic acid], the “effects compared to positive control roflumilast” value in experiment [2] is given as “comparable to those of roflumilast”.
